# Test results as given in article PMC4965013, “Open Source Drug Discovery with the Malaria Box Compound Collection for Neglected Diseases and Beyond” (PLoS Pathogens, 2016).
# What was measured:
# P. falciparum = assay: EC50 listed in S2 Table Metabolomics (used to set the concentration tested); type: cell-based; details: Plasmodium falciparum; EC50 used for Factor_XEC50 in metabolomics; read-out: EC50_nM
# [1] = system: P. falciparum 3D7 trophozoites; assay: Metabolomic fingerprint profiling LC-MS; type: cell-based, Plasmodium falciparum; set-up: UDP-D-glucose / ADP-D-glucose: unit not given here; details: for Acetyllysine / N-acetyl-L-ornithine / N-carbamoyl-L-aspartate / NADPH / dAMP / dCMP / dTDP / dTMP / dTTP / dihydroorotate / orotate / DLH / DLS/SDL/SID / PD / PEE / PVNF / 3-phosphoglycerate / ADP-D-glucose / ATP / CDP / D-sedoheptulose-1/7-phosphate / FAD / GMP / NAD+ / NADP+ / Octoluse Bisphosphate / Pyroglutamic acid / UDP-D-glucose / UDP-D-glucuronate / UDP-N-acetyl-glucosamine / UDP / UMP / UTP / a-ketoglutarate / citrate/isocitrate / cytidine / dATP / dGMP/AMP / fumarate / glucose-1/6-phosphate / glycerate / guanine / guanosine / hypoxanthine / indole / inosine / nicotinate / ornithine / phosphoenolpyruvate / pyruvate / ribose-phosphate / sarcosine/alanine / sn-glycerol-3-phosphate / succinate/methylmalonic acid / uridine / xanthosine: S2 Table Metabolomics; for Acetyllysine: metabolite Acetyllysine; for N-acetyl-L-ornithine: metabolite N-acetyl-L-ornithine; for N-carbamoyl-L-aspartate: metabolite N-carbamoyl-L-aspartate; for NADPH: metabolite NADPH; for dAMP: metabolite dAMP; for dCMP: metabolite dCMP; for dTDP: metabolite dTDP; for dTMP: metabolite dTMP; for dTTP: metabolite dTTP; for dihydroorotate: metabolite dihydroorotate; for orotate: metabolite orotate; for DLH: peptide DLH; for DLS/SDL/SID: peptide DLS/SDL/SID; for PD: peptide PD; for PEE: peptide PEE; for PVNF: peptide PVNF; for 3-phosphoglycerate: metabolite 3-phosphoglycerate; for ADP-D-glucose: metabolite ADP-D-glucose; for ATP: metabolite ATP; for CDP: metabolite CDP; for CDP / D-sedoheptulose-1/7-phosphate / GMP / Octoluse Bisphosphate / UDP / UMP / UTP / citrate/isocitrate / dGMP/AMP / fumarate / glucose-1/6-phosphate / glycerate / guanine / guanosine / inosine / pyruvate / sarcosine/alanine / succinate/methylmalonic acid / uridine / xanthosine: change in metabolite level after compound treatment; for D-sedoheptulose-1/7-phosphate: metabolite D-sedoheptulose-1/7-phosphate; for FAD: metabolite FAD; for GMP: metabolite GMP; for NAD+: metabolite NAD+; for NADP+: metabolite NADP+; for Octoluse Bisphosphate: metabolite Octoluse Bisphosphate; for Pyroglutamic acid: metabolite Pyroglutamic acid; for UDP-D-glucose: metabolite UDP-D-glucose; for UDP-D-glucuronate: metabolite UDP-D-glucuronate; for UDP-N-acetyl-glucosamine: metabolite UDP-N-acetyl-glucosamine; for UDP: metabolite UDP; for UMP: metabolite UMP; for UTP: metabolite UTP; for a-ketoglutarate: metabolite a-ketoglutarate; for citrate/isocitrate: metabolite citrate/isocitrate; for cytidine: metabolite cytidine; for dATP: metabolite dATP; for dGMP/AMP: metabolite dGMP/AMP; for fumarate: metabolite fumarate; for glucose-1/6-phosphate: metabolite glucose-1/6-phosphate; for glycerate: metabolite glycerate; for guanine: metabolite guanine; for guanosine: metabolite guanosine; for hypoxanthine: metabolite hypoxanthine; for indole: metabolite indole; for inosine: metabolite inosine; for 2_3-Diphosphoglyceric acid / 4-phosphopantothenate / 6-phospho-D-gluconate / FMN / IMP / Pyrophosphate / Sedoheptoluse bisphosphate / cyclic-AMP / glutathione disulfide / lactate / myo-inositol: metabolite level change after treatment; for nicotinate: metabolite nicotinate; for ornithine: metabolite ornithine; for phosphoenolpyruvate: metabolite phosphoenolpyruvate; for pyruvate: metabolite pyruvate; for ribose-phosphate: metabolite ribose-phosphate; for sarcosine/alanine: metabolite sarcosine/alanine; for sn-glycerol-3-phosphate: metabolite sn-glycerol-3-phosphate; for succinate/methylmalonic acid: metabolite succinate/methylmalonic acid; for uridine: metabolite uridine; for xanthosine: metabolite xanthosine
smiles,measurement,setting,value
Cc1cc(NC(=O)C2c3ccccc3C(=O)N(CC(C)C)C2c2cccs2)no1 (stereo not shown) [MMV006429],EC50,P. falciparum,32.8 nM
same,Acetyllysine,[1],-4.876
same,N-acetyl-L-ornithine,[1],-3.5354
same,N-carbamoyl-L-aspartate,[1],-2.585
same,NADPH,[1],1.978
same,dAMP,[1],2.292
same,dCMP,[1],1.167
same,dTDP,[1],1.627
same,dTMP,[1],3.344
same,dTTP,[1],1.446
same,dihydroorotate,[1],-3.6651
same,orotate,[1],-0.181
same,DLH,[1],-5.907
same,DLS/SDL/SID,[1],-4.536
same,PD,[1],-2.845
same,PEE,[1],-3.543
same,PVNF,[1],-6.513
same,3-phosphoglycerate,[1],0.34
same,ADP-D-glucose,[1],-0.1376
same,ATP,[1],-1.344
same,CDP,[1],-0.4641
same,D-sedoheptulose-1/7-phosphate,[1],-1.187
same,FAD,[1],-1.625
same,GMP,[1],-1.884
same,NAD+,[1],-0.4933
same,NADP+,[1],-0.001455
same,Octoluse Bisphosphate,[1],-2.069
same,Pyroglutamic acid,[1],0.2334
same,UDP-D-glucose,[1],-0.07653
same,UDP-D-glucuronate,[1],-0.002659
same,UDP-N-acetyl-glucosamine,[1],0.06871
same,UDP,[1],-1.216
same,UMP,[1],-0.6265
same,UTP,[1],-1.299
same,a-ketoglutarate,[1],0.2879
same,citrate/isocitrate,[1],-0.09158
same,cytidine,[1],0.5285
same,dATP,[1],0.0138
same,dGMP/AMP,[1],-0.6616
same,fumarate,[1],-0.1647
same,glucose-1/6-phosphate,[1],-1.368
same,glycerate,[1],-0.8344
same,guanine,[1],0.5068
same,guanosine,[1],1.214
same,hypoxanthine,[1],0.09881
same,indole,[1],0.1757
same,inosine,[1],0.2569
same,2_3-Diphosphoglyceric acid,[1],-1.036
same,4-phosphopantothenate,[1],-0.6242
same,6-phospho-D-gluconate,[1],-0.2953
same,FMN,[1],-0.07748
same,IMP,[1],-0.08419
same,Pyrophosphate,[1],-1.06
same,Sedoheptoluse bisphosphate,[1],-0.9732
same,cyclic-AMP,[1],-0.7986
same,glutathione disulfide,[1],-0.4517
same,lactate,[1],-0.7779
same,myo-inositol,[1],-1.114
same,nicotinate,[1],0.9425
same,ornithine,[1],-0.1056
same,phosphoenolpyruvate,[1],0.447
same,pyruvate,[1],-2.0102
same,ribose-phosphate,[1],-0.6145
same,sarcosine/alanine,[1],-1.58
same,sn-glycerol-3-phosphate,[1],1.267
same,succinate/methylmalonic acid,[1],0.2625
same,uridine,[1],1.463
same,xanthosine,[1],-1.351
COc1cc(OC)c(N(C)C(=O)c2cc3c(s2)-c2ccccc2S(=O)(=O)C3)cc1Cl [MMV006427],EC50,P. falciparum,78.2 nM
same,Acetyllysine,[1],-3.0678
same,N-acetyl-L-ornithine,[1],-2.077
same,N-carbamoyl-L-aspartate,[1],-3.4047
same,NADPH,[1],-0.4646
same,dAMP,[1],2.306
same,dCMP,[1],1.395
same,dTDP,[1],3.378
same,dTMP,[1],4.553
same,dTTP,[1],1.85
same,dihydroorotate,[1],-2.575
same,orotate,[1],0.4264
same,DLH,[1],-5.058
same,DLS/SDL/SID,[1],-4.1926
same,PD,[1],-1.1837
same,PEE,[1],-3.666
same,PVNF,[1],-5.242
same,3-phosphoglycerate,[1],0.1517
same,ADP-D-glucose,[1],-0.124
same,ATP,[1],-1.807
same,CDP,[1],0.8052
same,D-sedoheptulose-1/7-phosphate,[1],-0.2773
same,FAD,[1],-1.0601
same,GMP,[1],-2.558
same,NAD+,[1],0.783
same,NADP+,[1],0.3092
same,Octoluse Bisphosphate,[1],-2.061
same,Pyroglutamic acid,[1],-0.1068
same,UDP-D-glucose,[1],0.214
same,UDP-D-glucuronate,[1],-0.1144
same,UDP-N-acetyl-glucosamine,[1],0.3636
same,UDP,[1],0.3063
same,UMP,[1],0.3348
same,UTP,[1],-0.8427
same,a-ketoglutarate,[1],-0.411
same,citrate/isocitrate,[1],0.0762
same,cytidine,[1],0.3423
same,dATP,[1],-0.2111
same,dGMP/AMP,[1],-0.9855
same,fumarate,[1],-0.3788
same,glucose-1/6-phosphate,[1],-0.5462
same,glycerate,[1],-0.8092
same,guanine,[1],0.1326
same,guanosine,[1],0.04127
same,hypoxanthine,[1],-0.06662
same,indole,[1],-0.3106
same,inosine,[1],0.06183
same,2_3-Diphosphoglyceric acid,[1],-0.9034
same,4-phosphopantothenate,[1],-0.1012
same,6-phospho-D-gluconate,[1],-0.09619
same,FMN,[1],0.1283
same,IMP,[1],0.7504
same,Pyrophosphate,[1],-1.05
same,Sedoheptoluse bisphosphate,[1],-0.7918
same,cyclic-AMP,[1],-0.9224
same,glutathione disulfide,[1],-0.1859
same,lactate,[1],-1.014
same,myo-inositol,[1],-1.304
same,nicotinate,[1],0.5771
same,ornithine,[1],0.02692
same,phosphoenolpyruvate,[1],0.2074
same,pyruvate,[1],-1.66
same,ribose-phosphate,[1],-0.6233
same,sarcosine/alanine,[1],-1.711
same,sn-glycerol-3-phosphate,[1],0.334
same,succinate/methylmalonic acid,[1],0.04426
same,uridine,[1],-0.5041
same,xanthosine,[1],-1.485
